Here are results for 21 compounds from patent publication US20230202973A1, “BARNESIN A, DERIVATIVES AND USES THEREOF” (Leibniz-Institut Für Naturstoff-Forschung Und …, priority 2018, published 2023).

In general, inhibition refers to the drop in the measured response relative to a control, in per cent.

SMILES strings stand for the structures. Square brackets hold non-standard residues; d marks the D form. Peptide text beside a SMILES is read from it. * marks the point of attachment. Sta = CC(C)C[C@H](N)[C@@H](O)CC(=O)O; Isovaleryl = CC(C)CC(=O)*

A short description of one series: Glutathione (GSH) assay. The class given is in vitro ADME. Particulars: relative to t=0; for Area rel. [%] (GSH assay, NC): negative control: test item in phosphate buffer without GSH, time 90 min; for Area rel. [%] (GSH assay): with GSH, 37° C. The protocol:
Procedure: A standard GSH assay includes a phosphate buffer (720 μL), a GSH solution (40 μL, 100 mM) and the test solution of the test compound (20 μM in 10% DMSO in phosphate buffer (100 mM, pH 7.4)). As negative control (NC) serves the test item (20 μM in 10% DMSO in phosphate buffer (100 mM, pH 7.4) in phosphate buffer (760 μL).
Samples are prepared as follows: phosphate buffer (720 μL) and GSH solution (40 μL, 100 mM) were preincubated at 37° C., and 40 μL of the test item solution (or internal standard) added. Then […] of the assay mixture were mixed with 100 μL ACN were at the following time points: t=0, 30 and 90 min; in case of the test item, t=0 and 90 min in case of PC or NC. The samples were mixed for 2 min at 150 rpm, centrifuged at 16.1 (krcf). 5 μL of each samples were injected to a UPLC/HRMS system. The peak areas of the extracted ion chromatograms were determined using the standard software.

Series [1] is described as follows: Microsome stability assay. It is filed as in vitro ADME. Particulars: for Area rel. [%] (liver microsomes, NC): 90 min, 1 µM, pH 7.4; for Area rel. [%] (liver microsomes, PC): positive control, relative to t=0. The protocol:
Microsome Stability Assay The liver is the main organ of drug metabolism in the body. Subcellular fractions such as liver microsomes are useful in vitro models of hepatic clearance as they contain many of the drug metabolising enzymes found in the liver. Liver microsomes are subcellular fractions which contain membrane bound drug metabolising enzymes. The microsomes are incubated with the test compound at 37° C. in the presence of the co-factors, which initiates the reaction. The reaction is terminated by the addition of organic solvents containing internal standard. Following centrifugation, the supernatant is analysed on the LC-MS/MS. The disappearance of test compound is monitored over certain time period. Here, a microsome stability assay was used to investigate the metabolism of the compounds; using this assay it is possible to measure in vitro the intrinsic clearance or to identify metabolites formed. For a standard assay the following solutions were used: 360 μL Microsomal solution (1.1 mg/mL in phosphate buffer), 360 μL NADP-regeneration mix (containing NADP (10 mM), MgCl2 (50 mM), glucose-6-phosphate (50 mM), glucose-6-phosphate dehydrogenase (50 U/ml)) and 40 μL phosphate buffer (100 mM, pH 7.4). Diclofenac (10 μL, 200 μM) was used as positive control (360 μL Microsomal solution, 360 μL NADP-regeneration mix and 40 μL Phosphate buffer) and phosphate buffer (360 μL Microsomal solution, 360 μL NADP-regeneration mix) served as negative control. […] The following procedure was applied: 40 μL of the working solution was added to a pre-incubated solution containing the microsomal solution and the NADP-regeneration mix at 37° C./1500 rpm. Samples were prepared as follows: […] Samples were mixed at 1500 rpm for 2 min, centrifuged for 2 min at 16.1 krcf. 5 uL of each sample was injected to a UPLC/HRMS system and the peak areas of the extracted ion chromatograms were determined
Background: Liver microsomes are a subcellular fraction often used to study metabolism.

In a further series the target is Cathepsin B (Homo sapiens, UniProt P07858). The series can be described thus: Activity test against cathepsin B (initial screen, Table 5). It is filed as biochemical. Further details: dose or concentration left out as unconfirmed. On the procedure:
(§1) Activity Tests Against Cathepsin B, Cathepsin L and Rhodesain.
(§2) The determination of the activity of the inhibitors against hCatL and RD was performed in fluorescence-based assays in accordance with the assays described in Giroud et al., ChemMedChem 12 (2017), 257-270 and Schirmeister, Bioorganic & Medicinal Chemistry Letters 27 (2017) 45-50. The biological activities against hCatL were determined using Cbz-Phe-Arg-AMC as substrate, which releases AMC (7-amino-4-methylcoumarin) after amide bond cleavage by the enzyme. The proteolytic activity of the enzyme can be monitored spectrophotometrically by the increase of fluorescence intensity by release of AMC (emission at 460 nm) upon hydrolysis. An initial screen at an inhibitor concentration […] was performed to identify ligands with an inhibition of hCatL and RD higher than 80%.

The target in another series is hCatL (Homo sapiens, UniProt P07711). As to the kind of experiment: Fluorescence-based activity test against cathepsin L (Cbz-Phe-Arg-AMC). It is filed as biochemical. Set-up: dose or concentration left out as unconfirmed. On the procedure:
as §1, §2

A further series addresses T1, thermolysin (Bacillus thermoproteolyticus, UniProt P00800).
T1 construct: purchased Sigma-Aldrich P1512
The series can be described thus: Protease assay with azocasein: thermolysin. It is filed as biochemical. Conditions: 10 mM. The protocol: (§3) Protease Assays with azocasein: Protease inhibition assays against the proteases papain, ficin, trypsin, pepsin and thermolysin were performed according to the protocol of Garcia-Carreño (loc. cit.) in a reaction buffer containing 25 mM TRIS-HCl, 0.15 M NaCl, pH 7.2 (or pH 3.5 for aspartic protease). The total assay volume was 47 μL buffer with 2 μL of the protease as well as 1 μL of suitable inhibitor or corresponding inhibitor solvent (100% MeoH or water). Final concentration of proteases was as follows: 2 mg/mL for papain (Sigma-Aldrich, P4762), 600 μg/mL for ficin (Sigma-Aldrich, F6008), 80 μg/mL for trypsin (Thermo Fisher, 23266), 60 mg/mL for pepsin (Sigma-Aldrich P6887)) and 2 μg/mL for thermolysin (Sigma-Aldrich, P1512).
(§4) Inhibitors were dissolved in 100% MeOH or water and added to the assay (1 μL); final concentration: 2% MeOH. Samples of control inhibitors were prepared as follows: (1) serine protease (trypsin): PMFS (2 mM) and soybean trypsin inhibitor (240 μM) (Sigma-Aldrich, T1021), (2) cysteine proteases (papain and ficin): iodacetamide (2 mM), (3) […] (pepsin): pepstatin A (1 μg/mL) (Sigma-Aldrich, P4265), (4) metalloprotease (thermolysin): EDTA (10 mM). […] Negative controls were performed with protease alone (without inhibitor) and MeOH at a final concentration of 2% (reference for activity of 100%). Extract absorbance controls were performed using inhibitor (1 μL in MeOH) without protease. Blanks were performed using 49 μL buffer and 1 μL MeOH.
(§5) Samples were incubated with buffer and suitable inhibitor (or without for negative controls) for 1 h at r.t. and the reaction was started afterward by adding 50 μl of […] substrate and incubated for 1 h at 37° C. After stopping the reaction with trichloracetic acid (TCA), the separation of the precipitate was accomplished by centrifugation at 6500 g for 5 min. The hydrolyzed substrate supernatant was incubated in an equal volume of 0.5 N NaOH for 5 min and the absorbance was measured at 440 nm. OD values of the protease control without inhibitor were used as reference for a 100% activity.
(§6) The log IC50 values were determined using the standard curves analyzing tool with four parameter logistic equation of SigmaPlot12 with technical triplicates. Propagation of error was calculated using the standard error and log IC50 values where the equation of error propagation is defined as Δy=0.43Δx/x.

Another series concerns the target T2, pepsin (Sus scrofa, UniProt P00791).
T2 construct: purchased Sigma-Aldrich P6887
The series can be described thus: Protease assay with azocasein: pepsin. Particulars: 1 μg/mL. It is filed as biochemical. The protocol: as §3, §4, §5, §6

Sequence of hCatL (P07711 114-333): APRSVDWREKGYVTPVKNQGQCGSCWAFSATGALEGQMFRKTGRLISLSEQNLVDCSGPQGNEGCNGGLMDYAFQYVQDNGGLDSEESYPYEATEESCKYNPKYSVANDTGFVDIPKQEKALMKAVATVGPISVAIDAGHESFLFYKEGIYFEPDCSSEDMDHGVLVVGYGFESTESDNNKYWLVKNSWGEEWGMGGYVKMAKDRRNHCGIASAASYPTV
T1 sequence (P00800 233-548): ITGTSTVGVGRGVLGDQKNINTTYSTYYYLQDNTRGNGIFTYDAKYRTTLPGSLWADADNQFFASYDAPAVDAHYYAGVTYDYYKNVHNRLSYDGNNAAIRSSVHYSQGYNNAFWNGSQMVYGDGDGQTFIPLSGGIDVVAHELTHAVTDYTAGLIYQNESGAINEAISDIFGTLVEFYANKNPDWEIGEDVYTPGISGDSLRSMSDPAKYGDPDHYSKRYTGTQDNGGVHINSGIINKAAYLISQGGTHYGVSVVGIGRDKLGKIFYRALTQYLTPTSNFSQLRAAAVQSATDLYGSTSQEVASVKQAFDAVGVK
T2 sequence (P00791 60-385): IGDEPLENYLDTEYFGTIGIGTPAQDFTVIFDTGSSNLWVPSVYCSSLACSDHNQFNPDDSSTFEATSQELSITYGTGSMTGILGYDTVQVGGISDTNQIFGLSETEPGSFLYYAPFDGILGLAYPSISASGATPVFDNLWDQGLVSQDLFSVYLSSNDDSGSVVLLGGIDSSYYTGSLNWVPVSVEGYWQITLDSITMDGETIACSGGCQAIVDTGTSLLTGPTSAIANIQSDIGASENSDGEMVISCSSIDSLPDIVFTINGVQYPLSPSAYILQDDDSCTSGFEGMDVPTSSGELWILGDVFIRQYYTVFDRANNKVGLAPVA

As for `CC(=O)N[C@@H](Cc1ccc(O)cc1)C(=O)N[C@H](/C=C/C(=O)O)CCCNC(=N)N` [drawing 58], the “Area rel. [%] (GSH assay, NC)” value in “Glutathione (GSH) assay” worked out at 108.9%. Further, the “Area rel. [%] (GSH assay)” value in “Glutathione (GSH) assay” (pH 7.4, time 90 min) was determined as 112.8%.

With `CCCCCCCC(=O)N[C@@H](Cc1ccc(O)cc1)C(=O)N[C@H](/C=C/C(=O)O)CCCNC(=N)N` [drawing 64], the “Area rel. [%] (liver microsomes, NC)” value in series [1] was 104.3%.

Turning to `CCCCC/C=C/C(=O)N[C@@H](Cc1ccccc1)C(=O)N[C@H](/C=C/C(=O)O)CCCNC(=N)N` [drawing 61], the “Area rel. [%] (liver microsomes, NC)” value in series [1] worked out at 89.2%.

As for `CCCCC/C=C/C(=O)N[C@@H](Cc1ccc(O)cc1)C(=O)N[C@H](/C=C/C(=O)O)CCCNC(=N)N` [drawing 45], the inhibition at Cathepsin B is 50%; at hCatL it was 95%.

Turning to `CC(=O)N[C@@H](Cc1ccc(O)cc1)C(=O)N[C@H](/C=C/C(=O)O)CCCNC(=N)N` [drawing 66], in series [1], the “Area rel. [%] (liver microsomes, NC)” value is 111.9%.

For `CCCCC/C=C/C(=O)N[C@@H](Cc1ccc(O)cc1)C(=O)N[C@H](/C=C/C(=O)O)CCCNC(=N)N` [drawing 51], in “Glutathione (GSH) assay”, the “Area rel. [%] (GSH assay, NC)” value was 91.9%. For the same compound, the “Area rel. [%] (GSH assay)” value is 93.3% in the series “Glutathione (GSH) assay” (pH 7.4, time 30 min) and 94.2% in “Glutathione (GSH) assay” (pH 7.4, time 90 min).

On to `O=C(O)Cc1ccccc1Nc1c(Cl)cccc1Cl` [Diclo, Diclofenac, reference compound], for which the “Area rel. [%] (liver microsomes, PC)” value in series [1] (time 10 min) turned out to be 49.0%; in series [1] (time 35 min), 3.8%.

`CCCCC/C=C/C(=O)N[C@@H](Cc1ccccc1)C(=O)N[C@H](/C=C/C(=O)O)CCCNC(=N)N` [drawing 47]: the inhibition is 41% against Cathepsin B and 90% on hCatL.

As for `CCCCC/C=C/C(=O)N[C@@H](Cc1ccc(O)cc1)C(=O)N[C@@H](/C=C/C(=O)O)CCCCN` [drawing 52], in “Glutathione (GSH) assay”, the “Area rel. [%] (GSH assay, NC)” value stood at 103.9%. The “Area rel. [%] (GSH assay)” value in the series “Glutathione (GSH) assay” (pH 7.4, time 30 min) turned out to be 104.3%; in “Glutathione (GSH) assay” (pH 7.4, time 90 min) it was 98.0%.

For `CCCCC/C=C/C(=O)N[C@@H](Cc1ccc(O)cc1)C(=O)N[C@@H](/C=C/C(=O)O)CCCCN` [drawing 46], the inhibition on Cathepsin B came out at 73%; at hCatL it was 96%.

For `O=C(O)CN(CCN(CC(=O)O)CC(=O)O)CC(=O)O` [EDTA, reference compound], the “inhibited enzyme activity (thermolysin), control inhibitor” value at thermolysin is given as greater than 95%.

In the case of `CCCCCCCC(=O)N[C@@H](Cc1ccc(O)cc1)C(=O)N[C@H](/C=C/C(=O)O)CCCNC(=N)N` [drawing 50], the inhibition on Cathepsin B came to 30%; against hCatL it was 80%.

Turning to `CCCCC/C=C/C(=O)N[C@@H](Cc1ccccc1)C(=O)N[C@H](/C=C/C(=O)O)CCCNC(=N)N` [drawing 53], in “Glutathione (GSH) assay”, the “Area rel. [%] (GSH assay, NC)” value stood at 101.8%. The “Area rel. [%] (GSH assay)” value in “Glutathione (GSH) assay” (pH 7.4, time 30 min) is on record as 102.7%; in the series “Glutathione (GSH) assay” (pH 7.4, time 90 min), 106.2%.

With `CCCCC/C=C/C(=O)N[C@@H](Cc1ccc(O)cc1)C(=O)N[C@@H](/C=C/C(=O)O)CCCNC(=N)N` [drawing 48], the inhibition was 15% against Cathepsin B and 20% against hCatL.

On to `CCCCC/C=C/C(=O)N[C@H](Cc1ccc(O)cc1)C(=O)N[C@H](/C=C/C(=O)O)CCCNC(=N)N` [drawing 55], for which the “Area rel. [%] (GSH assay, NC)” value in the series “Glutathione (GSH) assay” is 91.9%. Besides, the “Area rel. [%] (GSH assay)” value in “Glutathione (GSH) assay” (pH 7.4, time 90 min) is reported as 98.6%.

As to `CCCCC/C=C/C(=O)N[C@@H](Cc1ccc(O)cc1)C(=O)N[C@H](/C=C/C(=O)O)CCCNC(=N)N` [drawing 59], the “Area rel. [%] (liver microsomes, NC)” value in series [1] is reported as 92.3%.

As to `CC(C)CC(=O)N[C@H](C(=O)N[C@H](C(=O)N[C@@H](CC(C)C)[C@@H](O)CC(=O)N[C@@H](C)C(=O)N[C@@H](CC(C)C)[C@@H](O)CC(=O)O)C(C)C)C(C)C` [pepstatin A, reference compound] (Isovaleryl-VV[Sta]A[Sta]-OH), the “inhibited enzyme activity (pepsin), control inhibitor” value at pepsin is given as greater than 95%.

Consider `CCCCCCCC(=O)N[C@@H](Cc1ccc(O)cc1)C(=O)N[C@@H](CCCNC(=N)N)CCC(=O)O` [drawing 65], for which the “Area rel. [%] (liver microsomes, NC)” value in series [1] is 99.5%.

For the compound `CCCCC/C=C/C(=O)N[C@@H](Cc1ccc(O)cc1)C(=O)N[C@@H](/C=C/C(=O)O)CCCCN` [drawing 60], the “Area rel. [%] (liver microsomes, NC)” value in series [1] came out at 95.7%.

In the case of `CCCCC/C=C/C(=O)N[C@@H](Cc1ccc(O)cc1)C(=O)N[C@@H](/C=C/C(=O)O)CCCNC(=N)N` [drawing 62], the “Area rel. [%] (liver microsomes, NC)” value in series [1] was found to be 102.8%.

Regarding `CCCCC/C=C/C(=O)N[C@H](Cc1ccc(O)cc1)C(=O)N[C@H](/C=C/C(=O)O)CCCNC(=N)N` [drawing 63], the “Area rel. [%] (liver microsomes, NC)” value in series [1] was determined as 105.8%.
